Converted amounts (≈) assume the structure as drawn. Read-outs that look alike come from different tables or passages of the source.
Assays:
PBP3 [1] = molecular target: PBP3 (Klebsiella pneumoniae, UniProt A0A0H3GN85); set-up: method as in PMID 29712652; details: read-out: IC50, PBP3; value in parentheses; K. pneumoniae ATCC 43816; cited from earlier work
PBP1b = system: PBP1b; set-up: method as in earlier work; details: value in parentheses; A. baumannii ATCC 19606; cited from earlier work
PBP1a = molecular target: T1, PBP1a (Pseudomonas aeruginosa, UniProt Q07806); experiment: Gel-based Bocillin FL competition PBP binding assay; details: P. aeruginosa PAM3034 membranes; Bocillin FL step 0°C for xeruborbactam, 30°C for beta-lactams; read-out: Relative binding IC50, PBP1a
T1 construct: endogenous in cells
Description: (§1) Ten milliliters of overnight bacterial culture was inoculated in 1 L of LB medium and grown to an OD600 of 0.7 to 0.9. The cell pellet was washed once with 50 mL of solution containing 100 mM Na-phosphate at pH 7.0 and 100 mM NaCl and resuspended in 10 mL of the same buffer with one tablet of EDTA-free mini-protease inhibitor and 10 mg of lysozyme. Cell suspensions were incubated for 45 min at 37°C, and then 200 μL of DNase I was added along with MgSO4 (to a final concentration of 10 mM), followed by three cycles of freeze-thawing (10 min and 20 min, respectively). Four cycles of sonication at maximum power were performed next, each cycle lasting for 30 s with 1 min on ice between cycles. The cell suspension was centrifuged at 12,000 × g for 10 min at 4°C. The supernatant was collected and centrifuged at 100,000 × g for 45 min at 4°C. The pellet was washed three times with 10 mL of 100 mM Na-phosphate, pH 7.0, by resuspension and subsequent centrifugation at 100,000 × g for 10 min at 4°C. The pellet was finally resuspended in 1.5 mL of 100 mM Na-phosphate, pH 7.0, and passed several times through a Dounce homogenizer (tight pestle). Membrane preparations were aliquoted and kept at −80°C.
(§2) Five microliters of total bacterial membrane preparation was mixed with 5 μL of a test compound at a desired concentration in 100 mM Na-phosphate buffer, pH 7.0. Incubation of bacterial membrane preparations with control beta-lactams was performed for 10 min at 30°C; xeruborbactam was incubated with membrane preparations for 1 h at 30°C. Five microliters of 150 μM Bocillin FL fluorescent probe (Thermo Fisher Scientific) was added, and the reaction mixture was incubated for an additional 10 min at 30°C in the case of beta-lactams or for 20 min on ice (0°C) in the case of xeruborbactam. […] At the end of the incubation step, 15 μL of 2× SDS sample loading buffer was added, and the reaction mixture was incubated for 5 min at 95°C. Twenty-five microliters of the reaction mixture was then loaded on an 8% SDS Tris-glycine gel (Thermo Fisher Scientific). At the end of the run, the gel was briefly rinsed with water and fixed in 10% acetic acid, 40% methanol for 20 min. After an additional wash in water for 30 min, the gel was scanned on a Typhoon Trio+ Imager using a blue laser filter (excitation, 488 nm, and emission, 520 nm). Densitometry of the gel images was performed using ImageQuant software (Molecular Dynamics). IC50 values were calculated with Prism software (GraphPad).

Staphylococcus aureus = experiment: MIC, Staphylococcus aureus (MSSA, MRSA); format: cell-based
Source text: (§3) Bacterial isolates were subjected to broth microdilution susceptibility testing, performed according to Clinical and Laboratory Standards Institute (CLSI) methods ([46]), using panels prepared in-house. Meropenem was purchased from Sandoz, and all other antibiotics were from Sigma-Aldrich. Xeruborbactam was synthesized at Qpex Biopharma, San Diego, CA. Avibactam was purchased from eNovation Chemicals LLC, Bridgewater, NJ, USA; zidebactam was from MedKoo Biosciences, Inc., Morrisville, NC, and nacubactam was from Advanced ChemBlocks, Hayward, CA. Durlobactam was synthesized at Acme Bioscience, Palo Alto, CA, USA.

PBP3 [2] = molecular target: PBP3 (Acinetobacter baumannii, UniProt A0ABX6CK25); set-up: method as in earlier work; details: read-out: IC50, PBP3; value in parentheses; A. baumannii ATCC 19606; cited from earlier work
PBP2 [3] = molecular target: T2, PBP2 (Pseudomonas aeruginosa, UniProt Q9X6V3); set-up: method as in PMID 18250190; details: value in parentheses; P. aeruginosa PAO1; cited from earlier work
T2 construct: Five microliters of total bacterial membrane preparation was mixed with 5 μL of a test compound; endogenous in cells

PBP2 [4] = molecular target: T2, PBP2; experiment: Gel-based Bocillin FL competition PBP binding assay; details: P. aeruginosa PAM3034 membranes; Bocillin FL step 0°C for xeruborbactam, 30°C for beta-lactams; read-out: Relative binding IC50, PBP2
Description: as §1, §2

PBP3 [5] = molecular target: T3, PBP3 (Pseudomonas aeruginosa, UniProt G3XD46); experiment: as above; details: P. aeruginosa PAM3034 membranes; Bocillin FL step 0°C for xeruborbactam, 30°C for beta-lactams; read-out: Relative binding IC50, PBP3
T3 construct: endogenous in cells
Description: as §1, §2

Enterobacterales = experiment: Broth microdilution MIC (CLSI), Enterobacterales; format: cell-based
Source text: as §3

[6] = Staphylococcus aureus, ATCC 29213 / MSSA, ATCC 29213, MSSA, read-out: MIC
[7] = Staphylococcus aureus, MRSA, sa001, MRSA, read-out: MIC
[8] = Staphylococcus aureus, MRSA, sa010, MRSA, read-out: MIC
[9] = Staphylococcus aureus, MRSA, sa013, MRSA, read-out: MIC
[10] = Staphylococcus aureus, MRSA, sa014, MRSA, read-out: MIC
[11] = Staphylococcus aureus, MRSA, sa148, MRSA, read-out: MIC
[12] = Staphylococcus aureus, MRSA, sa150, MRSA, read-out: MIC
[13] = Staphylococcus aureus, MRSA, sa151, MRSA, read-out: MIC
[14] = Staphylococcus aureus, MRSA, sa152, MRSA, read-out: MIC
[15] = Staphylococcus aureus, MRSA, sa153, MRSA, read-out: MIC
[16] = Staphylococcus aureus, MRSA, sa278, MRSA, read-out: MIC
[17] = Staphylococcus aureus, MRSA, sa279, MRSA, read-out: MIC
[18] = Staphylococcus aureus, MRSA, sa280, MRSA, read-out: MIC
[19] = Staphylococcus aureus, MRSA, sa281, MRSA, read-out: MIC
[20] = Staphylococcus aureus, MSSA, sa007, MSSA, read-out: MIC
[21] = Staphylococcus aureus, MSSA, sa015, MSSA, read-out: MIC
[22] = Enterobacterales, 1,028 isolates
[23] = Staphylococcus aureus, MSSA, n = 12

T2 sequence (Q9X6V3 1-646): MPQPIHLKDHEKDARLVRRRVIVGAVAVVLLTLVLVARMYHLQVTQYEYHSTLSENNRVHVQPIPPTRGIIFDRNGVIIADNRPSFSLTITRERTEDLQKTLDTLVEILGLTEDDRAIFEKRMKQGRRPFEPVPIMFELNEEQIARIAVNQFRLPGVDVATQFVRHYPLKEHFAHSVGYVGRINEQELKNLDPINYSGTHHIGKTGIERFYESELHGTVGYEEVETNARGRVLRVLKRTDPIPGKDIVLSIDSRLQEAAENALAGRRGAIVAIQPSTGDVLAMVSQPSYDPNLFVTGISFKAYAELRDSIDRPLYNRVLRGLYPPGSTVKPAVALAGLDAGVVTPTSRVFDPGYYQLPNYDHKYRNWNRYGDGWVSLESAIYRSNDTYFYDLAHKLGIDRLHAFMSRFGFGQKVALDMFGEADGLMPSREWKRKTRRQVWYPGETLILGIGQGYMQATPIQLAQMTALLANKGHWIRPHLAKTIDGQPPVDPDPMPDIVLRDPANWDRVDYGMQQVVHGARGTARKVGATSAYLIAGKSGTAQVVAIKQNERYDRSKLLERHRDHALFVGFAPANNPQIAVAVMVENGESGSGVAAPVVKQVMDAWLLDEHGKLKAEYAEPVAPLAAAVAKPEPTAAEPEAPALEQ
Sequence of PBP3 (Acinetobacter baumannii, UniProt A0ABX6CK25) (A0ABX6CK25 entry or part of it): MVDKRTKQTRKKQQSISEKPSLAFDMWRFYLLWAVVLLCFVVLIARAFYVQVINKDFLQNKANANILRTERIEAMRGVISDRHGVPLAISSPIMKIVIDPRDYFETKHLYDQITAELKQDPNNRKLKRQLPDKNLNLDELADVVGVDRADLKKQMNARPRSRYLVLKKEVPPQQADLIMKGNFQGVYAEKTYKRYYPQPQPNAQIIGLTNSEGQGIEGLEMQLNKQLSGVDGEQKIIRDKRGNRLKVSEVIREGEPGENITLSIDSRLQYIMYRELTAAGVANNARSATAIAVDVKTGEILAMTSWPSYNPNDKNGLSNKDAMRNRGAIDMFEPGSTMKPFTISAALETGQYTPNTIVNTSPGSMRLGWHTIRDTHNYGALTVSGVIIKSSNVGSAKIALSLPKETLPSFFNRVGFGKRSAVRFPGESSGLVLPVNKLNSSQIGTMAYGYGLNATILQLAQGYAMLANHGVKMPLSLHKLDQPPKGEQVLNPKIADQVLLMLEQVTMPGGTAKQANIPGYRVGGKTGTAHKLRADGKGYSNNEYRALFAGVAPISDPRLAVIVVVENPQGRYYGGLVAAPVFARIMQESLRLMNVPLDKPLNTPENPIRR
T3 sequence (G3XD46 whole entry): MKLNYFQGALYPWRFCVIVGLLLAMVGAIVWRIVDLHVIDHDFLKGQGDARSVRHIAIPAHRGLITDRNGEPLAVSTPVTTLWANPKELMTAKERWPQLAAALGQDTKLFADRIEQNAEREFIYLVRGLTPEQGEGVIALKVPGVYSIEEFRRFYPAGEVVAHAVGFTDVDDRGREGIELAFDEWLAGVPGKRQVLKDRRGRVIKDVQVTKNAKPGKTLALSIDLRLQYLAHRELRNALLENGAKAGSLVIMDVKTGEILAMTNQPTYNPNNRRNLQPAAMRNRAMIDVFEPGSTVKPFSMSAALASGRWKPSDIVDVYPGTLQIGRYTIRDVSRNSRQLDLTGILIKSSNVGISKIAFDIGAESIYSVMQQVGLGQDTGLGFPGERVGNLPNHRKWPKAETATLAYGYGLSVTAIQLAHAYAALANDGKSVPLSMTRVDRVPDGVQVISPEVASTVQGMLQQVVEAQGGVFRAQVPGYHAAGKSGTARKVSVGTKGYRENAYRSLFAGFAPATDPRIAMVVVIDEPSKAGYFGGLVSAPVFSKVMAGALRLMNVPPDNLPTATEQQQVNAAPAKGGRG
T1 sequence (Q07806 whole entry): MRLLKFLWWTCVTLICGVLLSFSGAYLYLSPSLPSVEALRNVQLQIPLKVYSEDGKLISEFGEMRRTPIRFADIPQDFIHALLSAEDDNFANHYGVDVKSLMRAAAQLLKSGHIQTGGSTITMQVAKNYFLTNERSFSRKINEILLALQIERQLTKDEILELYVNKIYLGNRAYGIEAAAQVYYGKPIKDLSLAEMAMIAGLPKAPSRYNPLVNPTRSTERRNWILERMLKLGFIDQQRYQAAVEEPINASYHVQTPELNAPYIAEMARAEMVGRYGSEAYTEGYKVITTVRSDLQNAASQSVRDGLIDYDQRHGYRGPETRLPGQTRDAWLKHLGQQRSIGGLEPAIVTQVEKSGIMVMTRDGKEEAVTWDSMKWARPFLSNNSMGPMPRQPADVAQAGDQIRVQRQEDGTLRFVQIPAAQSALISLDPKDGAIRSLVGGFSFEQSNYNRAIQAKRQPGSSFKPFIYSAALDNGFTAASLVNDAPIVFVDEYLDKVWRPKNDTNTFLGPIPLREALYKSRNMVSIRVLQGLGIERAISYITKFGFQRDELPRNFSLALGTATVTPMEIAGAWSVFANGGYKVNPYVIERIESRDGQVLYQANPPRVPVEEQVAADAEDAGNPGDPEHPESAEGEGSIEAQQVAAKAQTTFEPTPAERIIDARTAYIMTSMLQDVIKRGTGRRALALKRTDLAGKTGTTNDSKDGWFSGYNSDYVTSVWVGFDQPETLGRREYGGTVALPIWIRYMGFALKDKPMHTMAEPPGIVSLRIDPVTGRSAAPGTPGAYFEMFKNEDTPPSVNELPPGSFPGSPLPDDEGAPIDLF
Sequence of PBP3 (Klebsiella pneumoniae, UniProt A0A0H3GN85) (A0A0H3GN85 entry or part of it): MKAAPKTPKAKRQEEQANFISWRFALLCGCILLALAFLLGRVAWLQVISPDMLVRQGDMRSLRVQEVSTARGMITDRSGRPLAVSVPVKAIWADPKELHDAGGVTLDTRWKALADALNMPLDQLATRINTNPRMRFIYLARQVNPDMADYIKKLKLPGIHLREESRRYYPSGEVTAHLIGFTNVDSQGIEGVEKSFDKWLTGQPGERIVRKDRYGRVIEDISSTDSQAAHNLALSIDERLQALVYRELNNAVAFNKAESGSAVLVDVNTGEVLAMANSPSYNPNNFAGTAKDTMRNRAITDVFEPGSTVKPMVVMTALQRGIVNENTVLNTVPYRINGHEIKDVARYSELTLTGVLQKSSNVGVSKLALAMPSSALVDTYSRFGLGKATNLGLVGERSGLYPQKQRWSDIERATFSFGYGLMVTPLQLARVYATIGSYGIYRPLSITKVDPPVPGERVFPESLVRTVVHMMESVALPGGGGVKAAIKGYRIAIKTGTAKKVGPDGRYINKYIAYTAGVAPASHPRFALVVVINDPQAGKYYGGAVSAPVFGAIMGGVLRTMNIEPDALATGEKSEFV

For `C[C@@H](O)[C@H]1C(=O)N2C(C(=O)O)=C(S[C@@H]3CN[C@H](C(=O)N(C)C)C3)[C@H](C)[C@H]12` [Meropenem], the IC50 (PBP3 [1]) is given as 310 nM, the IC50 (PBP1b) is given as 500 nM and the IC50 (PBP1a) is given as 170 nM. For the same compound, the MIC (Staphylococcus aureus; [6]) was 0.06 µg/mL (≈ 0.156 µM), the MIC (Staphylococcus aureus; [7]) was 16 µg/mL (≈ 41.7 µM) and the MIC (Staphylococcus aureus; [8]) was 32 µg/mL (≈ 83.4 µM). The MIC (Staphylococcus aureus; [9]) was 16 µg/mL (≈ 41.7 µM), the MIC (Staphylococcus aureus; [10]) was 8 µg/mL (≈ 20.9 µM) and the MIC (Staphylococcus aureus; [11]) was 32 µg/mL (≈ 83.4 µM). It also gave an MIC (Staphylococcus aureus; [12]) of 32 µg/mL (≈ 83.4 µM), an MIC (Staphylococcus aureus; [13]) of 32 µg/mL (≈ 83.4 µM) and an MIC (Staphylococcus aureus; [14]) of 4 µg/mL (≈ 10.4 µM). For the same compound, the MIC (Staphylococcus aureus; [15]) was 32 µg/mL (≈ 83.4 µM), the MIC (Staphylococcus aureus; [16]) was 32 µg/mL (≈ 83.4 µM) and the MIC (Staphylococcus aureus; [17]) was 4 µg/mL (≈ 10.4 µM). The MIC (Staphylococcus aureus; [18]) was 4 µg/mL (≈ 10.4 µM), the MIC (Staphylococcus aureus; [19]) was 32 µg/mL (≈ 83.4 µM) and the MIC (Staphylococcus aureus; Staphylococcus aureus, MSSA) was 0.125 µg/mL (≈ 0.326 µM). The MIC (Staphylococcus aureus; [20]) was 0.25 µg/mL (≈ 0.652 µM), the MIC (Staphylococcus aureus; [21]) was 0.25 µg/mL (≈ 0.652 µM) and the MIC (Staphylococcus aureus; sa002, MSSA) was 0.125 µg/mL (≈ 0.326 µM). The MIC (Staphylococcus aureus; sa003, MSSA) was 0.125 µg/mL (≈ 0.326 µM), the MIC (Staphylococcus aureus; sa004, MSSA) was 0.125 µg/mL (≈ 0.326 µM) and the MIC (Staphylococcus aureus; sa005, MSSA) was 0.125 µg/mL (≈ 0.326 µM). It also gave an MIC (Staphylococcus aureus; sa006, MSSA) of 0.125 µg/mL (≈ 0.326 µM), an MIC (Staphylococcus aureus; sa008, MSSA) of 0.125 µg/mL (≈ 0.326 µM) and an MIC (Staphylococcus aureus; sa009, MSSA) of 0.125 µg/mL (≈ 0.326 µM). For the same compound, the MIC (Staphylococcus aureus; sa012, MSSA) was 0.125 µg/mL (≈ 0.326 µM), the IC50 (PBP3 [2]) was 330 nM and the IC50 (PBP2 [3]) was 50 nM.
For `O=C(O)c1c(F)ccc2c1OB(O)[C@@H]1C[C@H]21` [Xeruborbactam], the IC50 (PBP2 [4]) was 370000 ± 120000 nM, the IC50 (PBP3 [5]) was 510000 ± 120000 nM and the MIC50 (Enterobacterales; [22]) was 16 µg/mL (≈ 72.1 µM). The MIC90 (Enterobacterales; [22]) was 32 µg/mL (≈ 144 µM), the MIC range (Enterobacterales; [22]) was 2 to 64 µg/mL and the MIC (Enterobacterales; read-out: modal MIC) was 16 µg/mL (≈ 72.1 µM). For the same compound, the MIC (Enterobacterales; wild-type strains of Escherichia coli or Klebsiella pneumoniae, read-out: antibacterial potency (MIC)) was 8 to 16 µg/mL (≈ 36 to 72.1 µM), the MIC range (Staphylococcus aureus; MSSA, n = 12) was 4 to 8 µg/mL and the MIC (Staphylococcus aureus; [6]) was 4 µg/mL (≈ 18 µM). For the same compound, the MIC (Staphylococcus aureus; Staphylococcus aureus, MRSA, all the MRSA strains, n = 13, read-out: MIC) was > 32 µg/mL, the MIC (Staphylococcus aureus; [7]) was > 32 µg/mL and the MIC (Staphylococcus aureus; [8]) was > 32 µg/mL. The MIC (Staphylococcus aureus; [9]) was > 32 µg/mL, the MIC (Staphylococcus aureus; [10]) was > 32 µg/mL and the MIC (Staphylococcus aureus; [11]) was > 32 µg/mL. The MIC (Staphylococcus aureus; [12]) was > 32 µg/mL, the MIC (Staphylococcus aureus; [13]) was > 32 µg/mL and the MIC (Staphylococcus aureus; [14]) was > 32 µg/mL. For the same compound, the MIC (Staphylococcus aureus; [15]) was > 32 µg/mL, the MIC (Staphylococcus aureus; [16]) was > 32 µg/mL and the MIC (Staphylococcus aureus; [17]) was > 32 µg/mL. The MIC (Staphylococcus aureus; [18]) was > 32 µg/mL, the MIC (Staphylococcus aureus; [19]) was > 32 µg/mL and the MIC (Staphylococcus aureus; Staphylococcus aureus, MSSA, sa002, MSSA, read-out: MIC) was 8 µg/mL (≈ 36 µM). For the same compound, the MIC (Staphylococcus aureus; Staphylococcus aureus, MSSA, sa003, MSSA, read-out: MIC) was 8 µg/mL (≈ 36 µM), the MIC (Staphylococcus aureus; Staphylococcus aureus, MSSA, sa004, MSSA, read-out: MIC) was 8 µg/mL (≈ 36 µM) and the MIC (Staphylococcus aureus; Staphylococcus aureus, MSSA, sa005, MSSA, read-out: MIC) was 8 µg/mL (≈ 36 µM). The MIC (Staphylococcus aureus; Staphylococcus aureus, MSSA, sa006, MSSA, read-out: MIC) was 8 µg/mL (≈ 36 µM), the MIC (Staphylococcus aureus; [20]) was 8 µg/mL (≈ 36 µM) and the MIC (Staphylococcus aureus; Staphylococcus aureus, MSSA, sa008, MSSA, read-out: MIC) was 8 µg/mL (≈ 36 µM). For the same compound, the MIC (Staphylococcus aureus; Staphylococcus aureus, MSSA, sa009, MSSA, read-out: MIC) was 8 µg/mL (≈ 36 µM), the MIC (Staphylococcus aureus; Staphylococcus aureus, MSSA, sa011, MSSA, read-out: MIC) was 8 µg/mL (≈ 36 µM) and the MIC (Staphylococcus aureus; Staphylococcus aureus, MSSA, sa012, MSSA, read-out: MIC) was 8 µg/mL (≈ 36 µM). The MIC (Staphylococcus aureus; [21]) was 8 µg/mL (≈ 36 µM), the MIC50 (Staphylococcus aureus; [23]) was 8 µg/mL (≈ 36 µM) and the MIC90 (Staphylococcus aureus; [23]) was 8 µg/mL (≈ 36 µM).
